The record followed here is patent publication US20190076482A1, “ENHANCED ORGANOID FORMATION AND INTESTINAL STEM CELL RENEWAL” (THE JOHNS HOPKINS UNIVERSITY, priority 2016, published 2019).

One test relates to Hmga1 organoids. In words: Wnt inhibitor treatment of Hmga1 organoids. Format: cell-based, mouse. An excerpt:
(§1) To better define the role of Hmga1 in regulating Wnt signaling, we cultured Hmga1 organoids in the absence of the Wnt receptor agonist, R-spondin 1 (R-spo1), which is essential for organoid formation in this culture system. R-spo1 is secreted by intestinal stromal cells and binds to the Lgr5 receptor to activate Wnt signaling. The inventors discovered a dramatic difference in the response of Hmga1 organoids to the absence of R-spo1 as compared to the WT controls: Hmga1 organoids continued to survive and proliferate after 2 weeks, while the WT organoids lost their 3D structural organization and ultimately died by day 5 (FIG. 9). […] To further test the link between Hmga1 and Wnt, we treated organoids with the Wnt inhibitors, C59 and IWP-2, both of which block Wnt-mediated transcription and cell proliferation by inhibiting porcupine (PORCN), a protein required for Wnt palmitoylation, secretion, and biological activity. […] The blunted response of Hmga1 organoids to Wnt inhibition further highlights the ability of Hmga1 to amplify Wnt signaling to maintain and support ISCs.
Organoid culture and replating assay. Mouse organoids were established and maintained from isolated crypts of the proximal small intestine as described previously^1-7. […]

For another test, the system named is WT organoids. In words: Wnt inhibitor treatment of WT control organoids. It counts as cell-based, mouse. The conditions noted are these: for bud formation: controls.
Description: as §1
Organoid culture and replating assay. Mouse organoids were established and maintained from isolated crypts of the proximal small intestine as described previously^1-7. The basic culture medium (advanced Dulbecco's modified Eagle's medium/F12 supplemented with penicillin/streptomycin, 10 mmol/l HEPES, 13 Glutamax, 13 B27 [all from Life Technologies], and 1 mmol/l N-acetylcysteine [Sigma]) was supplemented with 50 ng/ml murine recombinant EGF (Peprotech), R-spondin 1 (1 μg/ml), and Noggin (10 ng/ml). Wnt inhibitors C59 and IWP-2 are commercially available (Abcam). Conditioned media was produced using HEK293T cells stably transfected with HA-mouse Rspo1-Fc (a gift from Calvin Kuo, Stanford University). Advanced DMEM/F12 supplemented with penicillin/streptomycin, 10 mmol/1 HEPES, and 13 Glutamax was conditioned for 1 week. For the replating assay, an equal number of organoids from each model were mechanically dispersed with a 10 mL pipet after 3-5 days in culture and replated using the conditions described above.

For the molecule `Cc1cc(-c2ccc(CC(=O)Nc3ccc(-c4cccnc4)cc3)cc2)ccn1` [C59], the organoid survival entry in the test with Hmga1 organoids (up to 2μM of C59 (FIG. 4f)) was “able to survive”. Moreover, in the test with WT organoids (WT controls, exposure to as little as 0.5 μM (FIG. 4f)), the organoid proliferation entry is recorded as “failed to proliferate”.
Take `Cc1ccc2nc(NC(=O)CSc3nc4c(c(=O)n3-c3ccccc3)SCC4)sc2c1` [IWP-2]: the “organoid survival and bud formation” value in the test with Hmga1 organoids (1 μM of IWP-2 (FIG. 4f)) is “survive and form buds”. Further, the figures for the bud formation result in the test on WT organoids (0.5 μM (FIG. 4f)) and in the test on WT organoids (1 μM IWP-2 (FIG. 4f)) were “few buds” and “no buds”, respectively.
